“And” between values parts separate entries of the source, which are not always exact repeats. Identical values can stand only once. Like-named read-outs stand apart in the source and are kept apart here.
What was measured:
[1] = test system: VEEV; assay: microbe, parasite or virus in culture; type: cell-based; settings: Venezuelan equine encephalitis virus
[2] = test system: EEEV; assay: microbe, parasite or virus in culture; type: cell-based; settings: Eastern equine encephalitis virus
[3] = test system: CHIKV; assay: microbe, parasite or virus in culture; type: cell-based, Chikungunya virus
[4] = test system: DENV2; assay: microbe, parasite or virus in culture; type: cell-based; settings: Dengue virus
[5] = test system: YFV; assay: microbe, parasite or virus in culture; type: cell-based; settings: Yellow fever virus, Vero 76
[6] = test system: Maporal virus; assay: microbe, parasite or virus in culture; type: cell-based
[7] = test system: Heartland virus; assay: microbe, parasite or virus in culture; type: cell-based; settings: Vero
[8] = test system: HCoV; assay: microbe, parasite or virus in culture; type: cell-based; settings: unidentified human coronavirus, Vero C1008
[9] = test system: Flu A H3N2; assay: microbe, parasite or virus in culture; type: cell-based, influenza A virus
[10] = test system: Flu B; assay: microbe, parasite or virus in culture; type: cell-based; settings: Influenza B virus, MDCK
[11] = test system: EBOV; assay: microbe, parasite or virus in culture; type: cell-based, Ebola virus; settings: Zaire ebolavirus, Vero
[12] = test system: Enterovirus-71; type: cell-based
[13] = test system: Poliovirus -1; assay: microbe, parasite or virus in culture; type: cell-based; settings: Enterovirus C, Vero 76, Poliovirus -1, Vero76 cells
[14] = test system: RSV; assay: microbe, parasite or virus in culture; type: cell-based, respiratory syncytial virus
[15] = Cytotoxicity (CC50) run with antiviral assays, BHK cells; type: cell-based; settings: hamster, Flaviviridae table
Description: Four-concentration CPE inhibition assays are performed. Confluent or near-confluent cell culture monolayers in 96-well disposable microplates are prepared. Cells are maintained in MEM or DMEM supplemented with FBS as required for each cell line. For antiviral assays the same medium is used but with FBS reduced to 2% or less and supplemented with 50 μg/mL gentamicin. The test compound is prepared at four log10 final concentrations, usually 0.1, 1.0, 10, and 100 μg/mL or μM. The virus control and cell control wells are on every microplate. In parallel, a known active drug is tested as a positive control drug using the same method as is applied for test compounds. The positive control is tested with each test run. The assay is set up by first removing growth media from the 96-well plates of cells. Then the test compound is applied in 0.1 mL volume to wells at 2× concentration. […] The dye content in each well is quantified using a 96-well spectrophotometer at 540 nm wavelength. […]
This assay involves similar methodology to what is described in the previous paragraphs using 96-well microplates of cells. […] The incorporated dye content is quantified as described above. […] Compounds observed to be active above are further evaluated by VYR assay. […] Wells are scored for presence or absence of virus after distinct CPE (measured by neutral red uptake) is observed. […]

[16] = test system: CEM cells; type: cell-based; settings: CEM cells (lowest of the range)
[17] = mouse, in vivo
[18] = ICR (CD-1), mouse, in vivo
[19] = test system: pestivirus and hepacivirus; settings: Stuyver et al., Antimicrob Agents Chemother, 2003; cited from earlier work
[20] = Cytotoxicity (CC50) run with antiviral assays, HG23 cells; settings: human
[21] = Cytotoxicity (CC50) run with antiviral assays, MA-104 cells; settings: African green monkey, CC50, MA-104 cells, Parainfluenza and RSV table

## O=c1nc(NO)ccn1C1OC(CO)C(O)C1O (stereo not shown) [EIDD-1931, 1-(3,4-dihydroxy-5-(hydroxymethyl)tetrahydrofuran-2-yl)-4-(hydroxyamino)pyrimidin-2-one]
[1]; Vero 76
  EC90: 0.8 µM
[1]; Vero 76, VEEV, Vero76 cells
  EC50: 1.28 µM
[1]; Vero, VEE virus, Vero cell cytopathic effect (CPE) model
  EC50: 1 µM
[2]; Vero 76
  EC90: 1.68 µM
[2]; Vero, EEE virus, Vero cell cytopathic effect (CPE) model
  EC50: 1.08 µM
[3]
  EC50: 1.8 µM
[3]; Chikungunya virus, Vero
  EC50: 1.28 µM
[4]; DENV2, Vero 76
  EC50: 14 µM
[4]; DENV2, Vero 76, DENV2, Vero76 cells
  EC50: 12.8 µM
[5]
  EC90: 26 µM
[6]
  EC50: > 124 µM
[6]; Maporal virus, Vero 76
  EC50: 84 µM
[7]
  EC90: 7.84 µM
[8]
  EC50: < 0.4 µM
[9]
  EC50: 0.88 µM
[9]; Influenza A virus, H3N2, MDCK
  EC50: 0.96 µM
[10]
  EC50: < 0.4 µM
[11]
  EC50: 4.7 µM
  EC90: 25 µM
[12]
  EC50: 3.44 µM and 3.36 µM
[13]
  EC50: 12.8 µM
[14]
  EC50: 27.6 µM
[14]; human respiratory syncytial virus, MA104
  EC50: 14 µM
[15]
  CC50: 30 µM
[16]
  selectivity index: 8
[17]
  body weight: weight loss was observed
[18]; 15 mg/kg
  t1/2: 2.9 h
[18]; 225 mg/kg
  t1/2: 4.2 h
[18]; 750 mg/kg
  AUCinf: 228.9 µM·h
  Brain Cmax: 18.8 nmol/g
  t1/2: 5.2 h
[19]
  antiviral activities: antipestivirus and antihepacivirus activities
[20]
  CC50: > 100 µM
[21]
  CC50: 272 µM

From patent publication US11903959B2 (EMORY UNIVERSITY, priority 2017, dated 2024)
